Target: T1, S6K1 (p70 S6K1, ribosomal protein S6 kinase 1) (Homo sapiens, UniProt P23443)
T1 construct: gene RPS6KB1; recombinant active S6K1 (R&D systems 896-KS)
Assay: in vitro kinase assay with recombinant S6K1 and GST-S6 (also H2B) substrate, […] ATP, immunoblot readout
Type: biochemical

T1 sequence (P23443 whole entry): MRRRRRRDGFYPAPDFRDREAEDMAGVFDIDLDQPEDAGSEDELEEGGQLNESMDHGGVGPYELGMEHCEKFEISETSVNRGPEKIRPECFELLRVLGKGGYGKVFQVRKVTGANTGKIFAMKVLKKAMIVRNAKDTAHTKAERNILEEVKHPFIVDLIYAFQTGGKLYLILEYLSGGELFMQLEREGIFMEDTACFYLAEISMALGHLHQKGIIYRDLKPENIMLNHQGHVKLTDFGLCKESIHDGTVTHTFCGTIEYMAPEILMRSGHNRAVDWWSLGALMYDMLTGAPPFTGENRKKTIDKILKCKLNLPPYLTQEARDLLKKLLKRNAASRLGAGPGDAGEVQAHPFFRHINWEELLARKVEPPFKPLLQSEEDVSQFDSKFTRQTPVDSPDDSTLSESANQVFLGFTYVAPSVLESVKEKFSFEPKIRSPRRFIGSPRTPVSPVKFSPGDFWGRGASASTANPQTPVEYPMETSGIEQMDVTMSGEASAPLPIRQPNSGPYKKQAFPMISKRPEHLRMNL

Structure (SMILES): COC(=O)[C@@H](Cc1ccc(O)c(O)c1)OC(=O)/C=C/c1ccc(O)c(O)c1 [RAME, rosmarinic acid methyl ester]
- in vitro kinase assay with recombinant S6K1 and GST-S6 (also H2B) substrate, 100: RAME inhibited the phosphorylation of S6 in dose-dependent manner (Fig. 2b)
